Source: patent publication US20150133460A1 (Millennium Phamaceuticals, Inc., priority 2013, published 2015)

Test: Equilibrium aqueous solubility
Assay type: physicochemical
Conditions: physiologically relevant pH's

| SMILES | solubility in water |
| --- | --- |
| COc1cc2c(N3CCN(C(=O)Nc4ccc(OC(C)C)cc4)CC3)ncnc2cc1OCCCN1CCCCC1.C[C@H](O)C(=O)O [Form 1, 4-[6-methoxy-7-(3-piperidin-1-yl-propoxy)quinazolin-4-yl]piperazine-1-carboxylic acid(4-isopropoxyphenyl)-amide (L)-lactate (I) Form 1] | greater than 450 mg/mL |
| COc1cc2c(N3CCN(C(=O)Nc4ccc(OC(C)C)cc4)CC3)ncnc2cc1OCCCN1CCCCC1.C[C@H](O)C(=O)O [Form 4, 4-[6-methoxy-7-(3-piperidin-1-yl-propoxy)quinazolin-4-yl]piperazine-1-carboxylic acid(4-isopropoxyphenyl)-amide (L)-lactate (I) Form 4] | greater than 325 mg/mL |
